Laboratory results reported in US20120064121A1, “PYRIDINE COMPOUNDS FOR INFLAMMATION AND IMMUNE-RELATED USES” (SYNTA PHARMACEUTICALS CORP., priority 2008, published 2012).
Structures can show the parent of a compound that is named as a salt.

The molecules below were run on IL-2 production (assay: Inhibition of IL-2 production in PHA-activated Jurkat cells (ELISA)). Details: Homo sapiens, Jurkat, 20 h, PHA 2.5 μg/mL, IL-2 ELISA.
Type: cell-based
Description: Jurkat cells were placed in a 96 well plate (0.5 million cells per well in 1% FBS medium) then a test compound of this invention was added at different concentrations. After 10 minutes, the cells were activated with PHA (final concentration 2.5 μg/mL) and incubated for 20 hours at 37° C. under CO2. The final volume was 200 μL. Following incubation, the cells were centrifuged and the supernatants collected and stored at −70° C. prior to assaying for IL-2 production. A commercial ELISA kit (IL-2 Eli-pair, Diaclone Research, Besancon, France) was used to detect production of IL-2, from which dose response curves were obtained. The IC50 value was calculated as the concentration at which 50% of maximum IL-2 production after stimulation was inhibited versus a non-stimulation control.
In the case of `Cc1ncsc1C(=O)Nc1ccc(-c2cc(-c3nccs3)ccc2Cl)cn1` [Compound 17, N-(5-(2-chloro-5-(thiazol-2-yl)phenyl)pyridin-2-yl)-4-methylthiazole-5-carboxamide], the IC50 is reported as 0.081 µM. With `O=C(Nc1ccc(-c2cc(-c3nccs3)ccc2Cl)cn1)c1c(F)cccc1Cl` [Compound 12, 2-chloro-N-(5-(2-chloro-5-(thiazol-2-yl)phenyl)pyridin-2-yl)-6-fluorobenzamide] the IC50 was 0.01 µM. With `O=C(Nc1ccc(-c2cc(-c3nccs3)ccc2Cl)cn1)c1c(F)cccc1C(F)(F)F` [Compound 13, N-(5-(2-chloro-5-(thiazol-2-yl)phenyl)pyridin-2-yl)-2-fluoro-6-(trifluoromethyl)benzamide] the IC50 was 0.066 µM. Molecule `O=C(Nc1ccc(-c2cc(-c3nccs3)ccc2Cl)cn1)c1ccccc1F` [Compound 11, N-(5-(2-chloro-5-(thiazol-2-yl)phenyl)pyridin-2-yl)-2-fluorobenzamide] has an IC50 of 0.013 µM. Molecule `O=C(Nc1ccc(-c2cc(-c3nccs3)ccc2Cl)nc1)c1ccccc1C(F)(F)F` [Compound 14, N-(6-(2-chloro-5-(thiazol-2-yl)phenyl)pyridin-3-yl)-2-(trifluoromethyl)benzamide] has an IC50 of 0.071 µM. Work on `Cc1ccc(-c2cccnc2)cc1-c1ccc(NC(=O)c2c(F)cccc2F)nc1` [Compound 6, 2,6-difluoro-N-(5-(2-methyl-5-(pyridin-3-yl)phenyl)pyridin-2-yl)benzamide] yielded an IC50 of 0.003 µM. Work on `Cc1ccc(-c2ccno2)cc1-c1ccc(NCc2c(F)cccc2F)cn1` [Compound 3, N-(2,6-difluorobenzyl)-6-(5-(isoxazol-5-yl)-2-methylphenyl)pyridin-3-amine] yielded an IC50 of 0.048 µM. With `Cn1cncc1C(=O)Nc1ccc(-c2cc(-c3nccs3)ccc2Cl)cn1` [Compound 16, N-(5-(2-chloro-5-(thiazol-2-yl)phenyl)pyridin-2-yl)-1-methyl-1H-imidazole-5-carboxamide] the IC50 was 0.091 µM. In the case of `Fc1cccc(F)c1CNc1ccc(-c2cc(-c3ncco3)ccc2Cl)cn1` [Compound 5, 5-(2-chloro-5-(oxazol-2-yl)phenyl)-N-(2,6-difluorobenzyl)pyridin-2-amine], the IC50 is reported as 0.017 µM. Molecule `Cc1cc[nH]c1C(=O)Nc1ccc(-c2cc(-c3nccs3)ccc2Cl)cn1` [Compound 15, N-(5-(2-chloro-5-(thiazol-2-yl)phenyl)pyridin-2-yl)-3-methyl-1H-pyrrole-2-carboxamide] has an IC50 of 0.348 µM. Work on `Cc1ccc(-c2ncccn2)cc1-c1ccc(NC(=O)c2c(F)cccc2F)nc1` [Compound 7, 2,6-difluoro-N-(5-(2-methyl-5-(pyrimidin-2-yl)phenyl)pyridin-2-yl)benzamide] yielded an IC50 of 0.012 µM. `O=C(Nc1ccc(-c2cc(-c3cccnc3)ccc2Cl)cn1)c1c(F)cccc1F` [Compound 18, N-(5-(2-chloro-5-(pyridin-3-yl)phenyl)pyridin-2-yl)-2,6-difluorobenzamide] showed an IC50 of 0.006 µM. For `O=C(Nc1ccc(-c2cc(-c3nccs3)ccc2Cl)cn1)c1ccncc1F` [Compound 8, N-(5-(2-chloro-5-(thiazol-2-yl)phenyl)pyridin-2-yl)-3-fluoroisonicotinamide], the IC50 was 0.011 µM. `Fc1cccc(F)c1CNc1ccc(-c2cc(-c3nccs3)ccc2Cl)nc1` [Compound 4, 6-(2-chloro-5-(thiazol-2-yl)phenyl)-N-(2,6-difluorobenzyl)pyridin-3-amine] was tested, and the IC50 was 0.019 µM.

Same assay, conditions: PHA 2.5 μg/mL, 20 hours, IL-2 ELISA
With `Cc1ccc(-c2cccnc2)cc1-c1ccc(NC(=O)c2c(F)cccc2Cl)nc1` [Compound 9, 2-chloro-6-fluoro-N-(5-(2-methyl-5-(pyridin-3-yl)phenyl)pyridin-2-yl)benzamide] the IC50 was > 1 µM. With `Fc1cccc(F)c1CNc1ccc(-c2cc(-c3nccs3)ccc2Cl)cn1` [Compound 1, 5-(2-chloro-5-(thiazol-2-yl)phenyl)-N-(2,6-difluorobenzyl)pyridin-2-amine] the IC50 was 0.056 µM.

Same assay, conditions: PHA 2.5 μg/mL, 20 hours, IL-2 ELISA, hydrochloride
In the case of `Fc1cccc(F)c1CNc1ccc(-c2cc(-c3nccs3)ccc2Cl)cn1` [Compound 2, 5-(2-chloro-5-(thiazol-2-yl)phenyl)-N-(2,6-difluorobenzyl)pyridin-2-amine hydrochloride], the IC50 is reported as 0.021 µM. Work on `Cc1ccc(-c2cccnc2)cc1-c1ccc(NC(=O)c2c(F)cccc2Cl)nc1` [Compound 10, 2-chloro-6-fluoro-N-(5-(2-methyl-5-(pyridin-3-yl)phenyl)pyridin-2-yl)benzamide hydrochloride] yielded an IC50 of 0.007 µM.
